The compounds below were run on CWR22RV1 cells (assay: Inhibition of proliferation of CWR22RV1 cells (CCK-8)). Conditions: Homo sapiens, CWR22Rv1, 144 h, 6 days.
Assay type: cell-based, human
Summary of the method: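 Cells seeded at 1500/well, cultured overnight, then exposed to compounds in 3-fold dilutions (9 concentrations from 10 μM top final, 0.1% DMSO) for 6 days at 37 °C. Viability read by CCK-8 absorbance at 450 nm after 2.5 h; IC50 from dose-response inhibition fit.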

| SMILES | IC50 |
| --- | --- |
| [2H]C([2H])([2H])n1cc(-c2cc(S(C)(=O)=O)cnc2N2CCC3(CC2)CC3)c2cc[nH]c2c1=O [Compound 187, 6-trideuteromethyl-4-(5(methylsulfonyl)-2-(6-aza-spiro[2.5]octan-6-yl)pyridin-3-yl)-1H-pyrrolo[2,3-c]pyridin-7(6H)-one] | 0.019 µM |
| [2H]C([2H])([2H])n1cc(-c2cc(S(=O)(=O)C(C)C)cnc2N2CCC3(CC2)CC3)c2cc[nH]c2c1=O [Compound 188, 4-(5-(isopropylsulfonyl)-2-(6-aza-spiro[2.5]octan-6-yl)pyridin-3-yl)-6-trideuteromethyl-1H-pyrrolo[2,3-c]pyridin-7(6H)-one] | 0.038 µM |
| [2H]C([2H])([2H])n1cc(-c2cc(NS(C)(=O)=O)ccc2N2CCC3(CC2)COC3)c2cc[nH]c2c1=O [Compound 189, N-(3-(6-trideuteromethyl-7-oxo-6,7-dihydro-1H-pyrrolo[2,3-c]pyridin-4-yl)-4-(2-oxa-7-aza-spiro[3.5]nonan-7-yl)phenyl)methanesulfonamide] | 0.12 µM |
| CCS(=O)(=O)Nc1ccc(N2CC3CC2CO3)c(-c2cn(C)c(=O)c3[nH]ccc23)c1 (stereo not drawn) [Compound 190, N-(4-(2-oxa-5-azabicyclo[2.2.1]heptan-5-yl)-3-(methyl-7-oxo-6,7-dihydro-1H-pyrrolo[2,3-c]pyridin-4-yl)phenyl)ethanesulfonamide] | 0.18 µM |
| Cn1cc(-c2cc(NS(=O)(=O)C3COC3)ccc2N2CCC3(CC3)C2)c2cc[nH]c2c1=O [Compound 191, N-(3-(6-methyl-7-O-6,7-dihydro-1H-pyrrolo[2,3-c]pyridin-4-yl)-4-(5-aza-spiro[2.4]heptan-2-yl)phenyl)oxetane-3-ylsulfonamide] | 0.14 µM |
| Cn1cc(-c2cc(NS(C)(=O)=O)ccc2N2CC3CC2CO3)c2cc[nH]c2c1=O (stereo not drawn) [Compound 192, N-(4-(2-oxa-5-azabicyclo[2.2.1]heptan-5-yl)-3-(6-methyl-7-oxo-6,7-dihydro-1H-pyrrolo[2,3-c]pyridin-4-yl)phenyl)methanesulfonamide] | 0.31 µM |
| CCS(=O)(=O)Nc1ccc(N2CCC3(CC2)COC3)c(-c2cn(C)c(=O)c3[nH]ccc23)c1 [Compound 194, N-(3-(6-methyl-7-oxo-6,7-dihydro-1H-pyrrolo[2,3-c]pyridin-4-yl)-4-(2-oxa-7-aza-spiro[3.5]nonan-7-yl)phenyl)ethanesulfonamide] | 0.046 µM |
| Cn1cc(-c2cc(NS(C)(=O)=O)ccc2N2CCC3(CC2)COC3)c2cc[nH]c2c1=O [Compound 195, N-(3-(6-methyl-7-oxo-6,7-dihydro-1H-pyrrolo[2,3-c]pyridin-4-yl)-4-(2-oxa-7-aza-spiro[3.5]nonan-7-yl)phenyl)methanesulfonamide] | 0.16 µM |
| [2H]C([2H])([2H])n1cc(-c2cc(NS(=O)(=O)CC)ccc2N2CCC3(CC2)COC3)c2cc[nH]c2c1=O [Compound 196, N-(3-(6-trideuteromethyl-7-oxo-6,7-dihydro-1H-pyrrolo[2,3-c]pyridin-4-yl)-4-(2-oxa-7-aza-spiro[3.5]nonan-7-yl)phenyl)ethanesulfonamide] | 0.056 µM |
| [2H]C([2H])([2H])n1cc(-c2cc(S(=O)(=O)NCC)ccc2N2CCC3(CC2)CC3)c2cc[nH]c2c1=O [Compound 197, N-ethyl-3-(6-trideuteromethyl-7-oxo-6,7-dihydro-1H-pyrrolo [2,3-c]pyridin-4-yl)-4-(6-aza-spiro[2.5]octan-6-yl)benzenesulfonamide] | 0.005 µM |
| [2H]C([2H])([2H])n1cc(-c2cc(S(N)(=O)=O)cnc2N2CCC3(CC3)C2)c2cc[nH]c2c1=O [Compound 198, 5-(6-trideuteromethyl-7-oxo-6,7-dihydro-1H-pyrrolo[2,3-c]pyridin-4-yl)-6-(5-aza-spiro[2.4]heptan-5-yl)pyridin-3-sulfonamide] | 0.01 µM |
| [2H]C([2H])([2H])n1cc(-c2cc(S(N)(=O)=O)cnc2N2CCC3(CC2)CC3)c2cc[nH]c2c1=O [Compound 199, 5-(6-trideuteromethyl-7-oxo-6,7-dihydro-1H-pyrrolo[2,3-c]pyridin-4-yl)-6-(6-aza-spiro[2.5]octan-6-yl)pyridin-3-sulfonamide] | 0.002 µM |

From US12162878B2 (HINOVA PHARMACEUTICALS INC., priority 2018, dated 2024)
